The source of these data is US10596296B2, “Heparan sulphates” (Agency for Science, Technology and Research, priority 2014, dated 2020).

Assay [1] deals with T1, TGF-β1 (Homo sapiens, UniProt P01137).
T1 construct: full length mature TGF-β1 is 112 amino acids in length
Nature of the assay: SPR analysis of TGF-β1 binding to biotinylated heparin on SA chip. As for the experimental part:
Biotinylated heparin was prepared based on the protocol reported by Hernaiz et al. (33). Briefly, 20 mg of heparin was filter-sterilized (0.22 μm) in 1 ml of water and incubated with 8.6 μmol of N-hydroxysuccinimide-biotin (NHS-biotin) (Pierce) in 20 μl of dimethyl sulfoxide (DMSO) for 2 h at 4° C. The biotinylated heparin was then extensively dialyzed (7000 MWCO) to remove unreacted biotin. Immobilization of the biotinylated heparin onto a streptavidin (SA) sensor chip (GE Healthcare) was carried out using the immobilization wizard on the Biacore T100 (GE Healthcare) with a targeted immobilization level of approximately 40 response units (RUs). HBS-EP running buffer (10 mM HEPES, 150 mM NaCl, 3.0 mM EDTA, 0.05% (v/v) Tween 20, pH 7.4) was used for the immobilization.
TGF-β1-heparin interactions were effected by preparing a series of TGF-β1 protein samples (50 to 800 nM final concentration) diluted in HBS-EP-0.1 running buffer (0.1% instead of 0.05% (v/v) Tween 20). […] The sample solutions were then injected over the heparin-coated chip at a flow rate of 30 μl/min for 120 s, with HBS-EP-0.1 being subsequently passed over the chip for a further 1200 s to monitor TGF-β1 dissociation. After dissociation, the sensor surface on the chip was regenerated by 2 washes of 2 M NaCl injected at 30 μl/min for 60 s. The response was measured as a function of time (sensogram) at 25° C. […]
(In general: Surface plasmon resonance follows binding to a sensor surface in real time, without labels.)

Assay [2] relates to TGF-β1 signaling (pSMAD2, pSMAD3) in hMSCs. Nature of the assay: Western blotting of pSMAD2/pSMAD3 in hMSCs treated with TGF-β1 and GAG. The class given is cell-based, human. As for the experimental part:
Primary hMSCs (Lonza) were isolated from the bone marrow mononuclear cells of a young healthy adult human donor by plastic adherence and characterized as previously described (30,31). The adherent cells were maintained in a basal media consisting of DMEM-low glucose (1000 mg/l, DMEM-LG) supplemented with 10% fetal calf serum, 100 U/ml penicillin, 100 μg/ml streptomycin and 2 mM L-glutamine, and cultured under standard conditions at 37° C. and 5% CO2 in a humidified atmosphere. Media replacement was every three days. Cells were detached with 0.125% trypsin/Versene (pH 7.0) upon reaching 75-80% confluence, and re-plated at a density of 3,000 cells/cm^2 under the same culture conditions. All experiments were carried out with cells at passage 5.
Human MSCs were cultured in 6-well plates in basal media for 24 h at a density of 10,000 cells/cm^2. TGF-β1 treatments were then prepared at either 1 ng/ml or 5 ng/ml alone or in the presence of either 10 μg/ml or 40 μg/ml of full length heparin, or 1 ng/ml of TGF-β1 with 10 μg/ml size-fractionated or selectively desulfated heparin, HS^PM, HS16+ or HS16−, and incubated at room temperature for 10 min before being added to the cells. Latent TGF-β1 (LTGF-β1) treatments were similarly prepared at 3.3 ng/ml alone or with 10 μg/ml of the various GAGs described above. For inhibitor studies, the cells were pre-treated for 30 min with 10 μM SB431542 (Sigma-Aldrich) or DMSO before treatment with TGF-β1. […] Samples were then immunoblotted with antibodies against SMAD2/3 (#3102, Cell Signaling), phosphorylated SMAD2 (pSMAD2, #3108, Cell Signaling), phosphorylated SMAD3 (pSMAD3, #9520, Cell Signaling) and actin (MAB1501R, Millipore). Densitometry was carried out using Quantity One software (version 4.6.6, Bio-Rad).

The target in assay [3] is LTGF-β1 (Homo sapiens, UniProt P01137). The settings on record: reference (56); cited from earlier work.
In assay [4] the test system is chondrogenic differentiation of hMSCs. Nature of the assay: Alcian blue staining of chondrogenic micromass pellets. The class given is cell-based, human. The settings on record: 21 days; 1 ng/mL TGF-β1 with 10 μg/mL GAG. As for the experimental part:
In order to assess the effects of HS16+ve on the chondrogenic differentiation of hMSCs in vitro, it was first necessary to establish the effects of TGF-β1 alone. Chondrogenic differentiation was carried out using a modified micromass culture system. [Zhang, L., et al., Chondrogenic differentiation of human mesenchymal stem cells: a comparison between micromass and pellet culture systems. Biotechnol Lett, 2010. 32(9): p. 1339-1346.]. Briefly, passage 4 hMSCs were harvested and resuspended in chemically defined chondrogenic media (PT-3003, Lonza, MD, USA) at 2×10^7 cells/mL. Droplets of 12.5 μL were then seeded into the middle of each well in a 24-well plate and left to adhere at 37° C. for 2 h, after which, 500 μL of chondrogenic media supplemented with either 1 or 10 ng/mL of TGF-β1 (100-210, PeproTech) alone or with either 5 or 10 μg/mL of heparin (Sigma-Aldrich), porcine mucosal HS (HSPM) (Celsus laboratories), HS16+ve or HS16-ve was added to each well. The cell droplets coalesced into spherical masses after 24 h. Media was changed every 3 days and the micromasses harvested on days 3, 7, 14 and 21.

Setting [5] is: 6 h post-treatment, heparin and TGF-β1.

T1 sequence (P01137 279-390 limits assumed): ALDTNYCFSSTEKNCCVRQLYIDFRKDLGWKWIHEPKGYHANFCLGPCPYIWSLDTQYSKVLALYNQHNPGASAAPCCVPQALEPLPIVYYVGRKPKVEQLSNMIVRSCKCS
Sequence of LTGF-β1 (P01137 279-390 limits assumed): as above
Sequence of LTGF-β1 (P01137 30-278 limits assumed): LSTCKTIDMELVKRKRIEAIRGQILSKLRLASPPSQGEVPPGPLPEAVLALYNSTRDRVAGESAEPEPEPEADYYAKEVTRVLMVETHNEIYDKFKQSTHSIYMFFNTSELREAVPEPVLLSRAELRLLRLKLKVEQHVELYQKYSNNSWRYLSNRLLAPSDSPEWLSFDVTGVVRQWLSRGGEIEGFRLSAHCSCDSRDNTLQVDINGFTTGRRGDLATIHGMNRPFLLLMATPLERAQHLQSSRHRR

heparin: the “TGF-β1 binding to heparin immobilized on Biacore SA-chip” value in assay [1] is recorded as “bound in a dose-dependent manner”. Besides, the equilibrium dissociation constant (Kd) (commonly the constant that tells how readily two partners part at equilibrium) in assay [1] (TGF-β1 50 to 800 nM injected over heparin-coated SA chip) is roughly 475 nM. For the same substance, the “pSMAD2 and pSMAD3 levels” value in assay [2] (1 h post treatment, with TGF-β1) was “saturated”; in assay [2] (TGF-β1 1 ng/ml pre-incubated with 10 μg/ml GAG, 6 h) it was “maintained a stronger pSMAD2 and pSMAD3 signal”. Also, the “pSMAD2 level relative to equivalent dose of TGF-β1 without heparin” value in assay [2] (setting [5]) is reported as roughly 1.6 fold. The “pSMAD3 level relative to equivalent dose of TGF-β1 without heparin” value in assay [2] (setting [5]) is recorded as roughly 1.35 fold. In addition, the “pSMAD levels relative to TGF-β1 alone” value in assay [2] (24 h, heparin and TGF-β1) was “continued to be greater”. In addition, the “pSMAD2 and pSMAD3 signal” value in assay [2] (TGF-β1 1 ng/mL with 40 μg/mL heparin, 6 h) was “unable to elicit the same effect”. Further, the pSMAD signal result in assay [2] (TGF-β1 5 ng/mL with 10 or 40 μg/mL heparin, 6 h) is “neither dose of heparin was able enhance the pSMAD signal beyond that obtained from the growth factor alone”. For the same substance, the “levels of pSMAD2 and pSMAD3” value in assay [2] (heparin alone, no TGF-β1) is recorded as “No discernible levels”. Besides, in assay [3], the “effect on activation of LTGF-β1” value is recorded as “inhibit the activation of LTGF-β1”. Also, in assay [4], the “GAG deposition by Alcian blue staining relative to 1 ng/mL TGF-β1 alone” value is reported as “slight increase in GAG deposition”.
